Measured values taken from ChEMBL document CHEMBL5725332, “Quinazoline derivative” (2017).

Experiment: Luciferase Assay: Using ONE-Glo Luciferase Assay System (Promega Corporation, No. E6110), the luciferase activity of the cells in the wells was measured by a microplate reader (Synergy H1, BioTek Instruments, Inc.) An IC50 value was calculated from the luminescence intensity of each compound concentration, supposing that the luminescence intensity of a group with no addition of the compound and with Wnt-3a stimulation was 100%, and that the luminescence intensity of a group with no addition of the compound and with no Wnt-3a stimulation was 0%.
Settings: Homo sapiens

| IC50 | Structure (SMILES) |
| --- | --- |
| < 0.3 µM | OCc1n[nH]c2cc(Nc3ncc4ccc(F)c(O[C@H]5CC[C@@H](O)CC5)c4n3)ccc12 |
| < 0.3 µM | O[C@H]1CC[C@@H](Oc2c(F)ccc3cnc(Nc4ccc5ncsc5c4)nc23)CC1 |
| in the range around 0.65 µM | Cc1ccc2cnc(Nc3ccc4nc[nH]c4c3)nc2c1O[C@H]1CC[C@@H](O)CC1 |
| < 0.3 µM | O[C@H]1CC[C@@H](Oc2c(F)ccc3cnc(Nc4ccc5ncccc5c4)nc23)CC1 |
| < 0.3 µM | O[C@H]1CC[C@@H](Oc2c(Br)ccc3cnc(Nc4ccc5nc[nH]c5c4)nc23)CC1 |
| in the range around 0.65 µM | O[C@H]1CC[C@@H](Oc2cccc3cnc(Nc4ccnc5cc(F)ccc45)nc23)CC1 |
| in the range around 0.65 µM | Cc1ccc2cc(Nc3ncc4cccc(O[C@H]5CC[C@@H](O)CC5)c4n3)ccc2n1 |
| in the range around 0.65 µM | O[C@H]1CC[C@@H](Oc2cccc3cnc(Nc4ccc5cnccc5c4)nc23)CC1 |
| in the range around 0.65 µM | O[C@H]1CC[C@@H](Oc2cccc3cnc(Nc4ccc5ncccc5c4)nc23)CC1 |
| in the range around 2 µM | O[C@H]1CC[C@@H](Oc2cccc3cnc(Nc4ccc5ccncc5c4)nc23)CC1 |

The remaining lines, values behind:

| Structure (SMILES) | IC50 |
| --- | --- |
| O[C@H]1CC[C@@H](Oc2cccc3cnc(Nc4ccc5nc[nH]c5c4)nc23)CC1 | < 0.3 µM |
| Cc1nc2c(Br)cc(Nc3ncc4cccc(O[C@H]5CC[C@@H](O)CC5)c4n3)cc2[nH]1 | in the range around 2 µM |
| O[C@H]1CC[C@@H](Oc2cccc3cnc(Nc4ccnc5ccccc45)nc23)CC1 | < 0.3 µM |
| O[C@H]1CC[C@@H](Oc2cccc3cnc(Nc4ccc5scnc5c4)nc23)CC1 | < 0.3 µM |
| O[C@H]1CC[C@@H](Oc2cccc3cnc(Nc4cccc5cnccc45)nc23)CC1 | in the range around 0.65 µM |
| Cc1nc2c(C)cc(Nc3ncc4cccc(O[C@H]5CC[C@@H](O)CC5)c4n3)cc2[nH]1 | in the range around 0.65 µM |
| Cc1cc2nc[nH]c2cc1Nc1ncc2cccc(O[C@H]3CC[C@@H](O)CC3)c2n1 | in the range around 0.65 µM |
| O[C@H]1CC[C@@H](Oc2cccc3cnc(Nc4ccc5nc(C(F)(F)F)[nH]c5c4)nc23)CC1 | in the range around 2 µM |
| C[C@H](O)c1nc2ccc(Nc3ncc4cccc(O[C@H]5CC[C@@H](O)CC5)c4n3)cc2[nH]1 | in the range around 0.65 µM |
| Cc1nc2ccc(Nc3ncc4ccc(Br)c(O[C@H]5CC[C@@H](O)CC5)c4n3)cc2[nH]1 | in the range around 0.65 µM |
| COCc1nc2ccc(Nc3ncc4cccc(O[C@H]5CC[C@@H](O)CC5)c4n3)cc2[nH]1 | in the range around 0.65 µM |
| OCc1cc(Nc2ncc3cccc(O[C@H]4CC[C@@H](O)CC4)c3n2)cc2[nH]cnc12 | < 0.3 µM |
| OCc1nc2cc(Nc3ncc4cccc(O[C@H]5CC[C@@H](O)CC5)c4n3)ccc2[nH]1 | in the range around 0.65 µM |
| O[C@H]1CC[C@@H](Oc2cccc3cnc(Nc4ccc5[nH]c(CN6CCCC6)nc5c4)nc23)CC1 | < 0.3 µM |
| COc1ccc2c(Nc3ncc4cccc(O[C@H]5CC[C@@H](O)CC5)c4n3)ccnc2c1 | in the range around 0.65 µM |
| O[C@H]1CC[C@@H](Oc2cc(F)cc3cnc(Nc4ccc5nc[nH]c5c4)nc23)CC1 | in the range around 0.65 µM |
